# Source: patent US8637510B2, “Morpholinothiazoles as alpha 7 positive allosteric modulators” (Janssen Pharmaceutica NV, priority 2009, dated 2014)
# Assays:
# human alpha 7-wt nAChR = target: T1, human alpha 7-wt nAChR (Homo sapiens, UniProt P36544); test: Ca2+ flux imaging (FDSS) (Protocol B); type: cell-based; conditions: for Emax: efficacy of 100 μM choline defined as 100% in the absence of a PAM, read-out: a7-PAM-G_[33]_Eff_Curve_FI % Efficacy; for EC50: potentiation of 100 μM choline, compounds 0.01 μM to 30 μM, read-out: a7-PAM-G_[33]_pEC50 pEC50 (converted)
# T1 construct: expressed in transfected cells
# Summary of the method: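 PAM activity was measured as FDSS calcium fluorescence in α7-wt nAChR cells loaded with 2 μM Fluo-4AM, with compounds at 0.01–30 μM added alongside or 10 min ahead of sub-maximal 100 μM choline. Peak responses were normalised to choline-only efficacy, and EC50 was taken at half-maximal effect.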
# [1] = target: T2, human alpha 7-wt nAChR-expressing GH4C1 cells (Homo sapiens, UniProt P36544); test: Patch-clamp current recording (whole-cell voltage-clamp, PAM type classification); type: cell-based; design: key: Type 0 compounds minimally change the effect size of the current elicited by 1 mM choline.; Type 1 compounds enhance the effect size of the current elicited by 1 mM choline but minimally alter the kinetics of the receptor.; Type 2 compounds enhance the effect size of the current elicited by 1 mM choline while reducing the rate and/or the extent of desensitization.; Type 3 compounds enhance the effect size of the current elicited by 1 mM choline. When tested at higher concentrations up to 10 μM they completely inhibit desensitization; Type 4 compounds allow for an initial desensitization of the receptor followed by a re-opening of the receptor during agonist application; conditions: 1 mM choline
# T2 construct: expressed in transfected cells
# Summary of the method: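 Whole-cell voltage clamp of GH4C1 cells stably expressing human wild-type α7 nAChR, with compound co-applied with 1 mM choline via rapid (<100 ms) solution switching; external pH 7.3, CsCl-based internal solution, 1.5-3 MΩ electrodes. PAM type (0-4) assigned from current kinetics when peak potentiation reached ≥200% of control choline response.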
# T1 sequence (P36544 23-502): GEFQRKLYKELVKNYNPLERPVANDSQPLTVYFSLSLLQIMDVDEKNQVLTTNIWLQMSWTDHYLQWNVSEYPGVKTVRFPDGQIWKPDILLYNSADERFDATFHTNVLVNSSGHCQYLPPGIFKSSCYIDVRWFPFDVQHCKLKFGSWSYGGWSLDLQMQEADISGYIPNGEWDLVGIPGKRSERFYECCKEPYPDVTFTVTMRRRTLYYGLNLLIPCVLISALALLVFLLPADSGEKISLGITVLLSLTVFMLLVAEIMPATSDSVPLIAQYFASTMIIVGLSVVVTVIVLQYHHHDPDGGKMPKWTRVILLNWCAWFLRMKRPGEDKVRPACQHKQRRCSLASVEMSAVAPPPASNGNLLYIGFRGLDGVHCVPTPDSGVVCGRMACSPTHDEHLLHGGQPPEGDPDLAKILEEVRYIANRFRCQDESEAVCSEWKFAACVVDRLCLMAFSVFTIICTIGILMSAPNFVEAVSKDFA
# T2 sequence (P36544 23-502): as above
structure (smiles),measurement,setting,value
"Cc1cc(-c2sc(N3CCO[C@@H](C(F)(F)F)C3)nc2CNC(=O)CC2CC2)cc(C)n1 [Compound 191, N-[[5-(2,6-dimethyl-4-pyridinyl)-2-[(2R)-2-(trifluoromethyl)-4-morpholinyl]-4-thiazolyl]methyl]-cyclopropaneacetamide]",Emax,human alpha 7-wt nAChR,995%
same,EC50,human alpha 7-wt nAChR,74.1 nM
same,melting point,,182 °C
same,PAM_Type PAM type,[1],2
"Cc1cc(-c2sc(N3CCO[C@H](C(F)(F)F)C3)nc2CNC(=O)CC2CC2)cc(C)n1 [Compound 192, N-[[5-(2,6-dimethyl-4-pyridinyl)-2-[(2S)-2-(trifluoromethyl)-4-morpholinyl]-4-thiazolyl]methyl]-cyclopropaneacetamide]",Emax,human alpha 7-wt nAChR,670%
same,EC50,human alpha 7-wt nAChR,234 nM
same,melting point,,183 °C
same,PAM_Type PAM type,[1],2
"Cc1cc(-c2sc(N3CCOC(C(F)(F)F)C3)nc2CNC(=O)C(C)C)cc(C)n1 (stereo not drawn) [Compound 194, N-[[5-(2,6-dimethyl-4-pyridinyl)-2-[2-(trifluoromethyl)-4-morpholinyl]-4-thiazolyl]methyl]-2-methyl-propanamide]",EC50,human alpha 7-wt nAChR,55 nM
same,melting point,,189 °C
same,PAM_Type PAM type,[1],3
"Cc1cc(-c2sc(N3CCOC(C(F)(F)F)C3)nc2CNC(=O)c2cc(C)on2)cc(C)n1 (stereo not drawn) [Compound 195, N-[[5-(2,6-dimethyl-4-pyridinyl)-2-[2-(trifluoromethyl)-4-morpholinyl]-4-thiazolyl]methyl]-5-methyl-3-isoxazolecarboxamide]",EC50,human alpha 7-wt nAChR,186 nM
same,melting point,,170 °C
same,PAM_Type PAM type,[1],0
"Cc1cc(-c2sc(N3CCOC(C(F)(F)F)C3)nc2CNC(=O)c2conc2C)cc(C)n1 (stereo not drawn) [Compound 196, N-[[5-(2,6-dimethyl-4-pyridinyl)-2-[2-(trifluoromethyl)-4-morpholinyl]-4-thiazolyl]methyl]-3-methyl-4-isoxazolecarboxamide]",Emax,human alpha 7-wt nAChR,819%
same,EC50,human alpha 7-wt nAChR,56.2 nM
same,melting point,,178 °C
same,PAM_Type PAM type,[1],2
"Cc1nocc1C(=O)NCc1nc(N2C[C@@H](C)O[C@@H](C)C2)sc1-c1ccnc(C(F)(F)F)c1 [Compound 197, N-[[2-[(2R,6S)-2,6-dimethyl-4-morpholinyl]-5-[2-(trifluoromethyl)-4-pyridinyl]-4-thiazolyl]methyl]-3-methyl-4-isoxazolecarboxamide]",EC50,human alpha 7-wt nAChR,363 nM
same,melting point,,205 °C
same,PAM_Type PAM type,[1],1
"C[C@@H]1CN(c2nc(CNC(=O)CC3CC3)c(-c3ccnc(C(F)(F)F)c3)s2)C[C@H](C)O1 [Compound 200, N-[[2-[(2R,6S)-2,6-dimethyl-4-morpholinyl]-5-[2-(trifluoromethyl)-4-pyridinyl]-4-thiazolyl]methyl]-cyclopropaneacetamide]",EC50,human alpha 7-wt nAChR,162 nM
same,melting point,,198 °C
same,PAM_Type PAM type,[1],1
"CC(C)C(=O)NCc1nc(N2C[C@@H](C)O[C@@H](C)C2)sc1-c1ccnc(C(F)(F)F)c1 [Compound 201, N-[[2-[(2R,6S)-2,6-dimethyl-4-morpholinyl]-5-[2-(trifluoromethyl)-4-pyridinyl]-4-thiazolyl]methyl]-2-methyl-propanamide]",Emax,human alpha 7-wt nAChR,930%
same,EC50,human alpha 7-wt nAChR,245 nM
same,melting point,,216 °C
same,PAM_Type PAM type,[1],1
"Cc1cc(-c2sc(N3CC4CCC(C3)O4)nc2CNC(=O)C(C)C)cc(C)n1 [Compound 207, N-[[5-(2,6-dimethyl-4-pyridinyl)-2-(8-oxa-3-azabicyclo[3.2.1]oct-3-yl)-4-thiazolyl]methyl]-2-methyl-propanamide]",EC50,human alpha 7-wt nAChR,3310 nM
same,melting point,,179 °C
same,PAM_Type PAM type,[1],1
"Cc1cc(-c2sc(N3CC4CCC(C3)O4)nc2CNC(=O)c2ccc(F)cc2C)cc(C)n1 [Compound 208, N-[[5-(2,6-dimethyl-4-pyridinyl)-2-(8-oxa-3-azabicyclo[3.2.1]oct-3-y1)-4-thiazolyl]methyl]-4-fluoro-2-methyl-benzamide]",Emax,human alpha 7-wt nAChR,898%
same,EC50,human alpha 7-wt nAChR,603 nM
same,melting point,,194 °C
same,PAM_Type PAM type,[1],2
"Cc1cc(-c2sc(N3CC4CCC(C3)O4)nc2CNC(=O)CC2CC2)cc(C)n1 [Compound 209, N-[[5-(2,6-dimethyl-4-pyridinyl)-2-(8-oxa-3-azabicyclo[3.2.1]oct-3-y1)-4-thiazolyl]methyl]-cyclopropaneacetamide]",Emax,human alpha 7-wt nAChR,705%
same,EC50,human alpha 7-wt nAChR,3160 nM
same,melting point,,161 °C
same,PAM_Type PAM type,[1],0
